This note sets out measurements from patent US12459951B2, “Compounds that interact with RAS superfamily proteins for treatment of cancers, inflammatory diseases, rasopathies, and fibrotic disease” (SHY Therapeutics, LLC, priority 2022, dated 2025).

Read-outs that look alike come from different tables or passages of the source. Some results are limits rather than exact numbers.

The test system of assay [1] is BT-549 (expressing wild type KRAS). In words: Proliferation Assay (Cell Viability Assay). The class given is cell-based. The conditions noted are these: Homo sapiens. Summed up: (§1)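 Cells plated at 2000–5000/well overnight, then treated 2–4 days at 37 °C, 5% CO2 with compound at 10 μM single dose or serial dilutions for IC50, in 0.3% DMSO and 10% FBS. Viability read by CellTiter 96 Aqueous One (MTS); % proliferation inhibition calculated from raw data.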

The subject of assay [2] is NCI-H358 (expressing KRas G12C mutant). In words: Proliferation Assay (Cell Viability Assay). Format: cell-based. The following applies: Homo sapiens. Summed up:
as §1

A further assay relates to A375 (wild type Kras). In words: Proliferation Assay (Cell Viability Assay). The class given is cell-based. The conditions noted are these: Homo sapiens, A-375. Put shortly:
as §1

The subject of assay [3] is MM.1R (expressing wild type KRAS). In words: Proliferation Assay (Cell Viability Assay). The conditions noted are these: Homo sapiens, read-out: MM.1R IC50 (nM) Multiple Myloma. The class given is cell-based. Put shortly: as §1
In assay [4] the test system is GP2d (expressing KRas G12D mutant). The experiment in a line: Proliferation Assay (Cell Viability Assay). The class given is cell-based. The following applies: Homo sapiens. Summed up: as §1
A further assay concerns active/cleaved caspase 9. The experiment in a line: Cell-based caspase activation assay (western blot). The arrangement: species or system human. The method, then:
(§2) Biological Example 4: Puma Expression and Caspases Activation Assay
(§3) Protocols for Cell-Based Puma Expression and Caspase Activation Assays
(§4) Cell lines: All human tumor-derived cancer cell lines were purchased from American Type Culture Collection. Human tumor-derived cancer cell lines Panc-1 (expressing KRas G12D mutant), MiaPaca-2 (expressing KRas G12C mutant), A549 (expressing KRas G12S mutant), and A375 (expressing wild type KRas) were grown in complete DMEM-High Glucose medium and NCI-H1975 (expressing wild type KRas), MM.1R (expressing wild type KRas) and IM.9 (expressing wild type KRas) were grown in RPMI1640 medium. Human tumor-derived cancer cell line BT-549 (expressing wild type KRas) was grown in RPMI1640 medium with 11.8U insulin. All mediums were supplemented with penicillin (100 U/mL), streptomycin (100 μg/mL), and 10% heat-inactivated FBS at 37° C. in a humidified incubator with 5% CO2.
(§5) Method: Cells were plated at 300,000 to 800,000 cells/well density in a 6-well plate in the presence of 10% FBS. The next day small molecules to be tested were added to the cells in the final concentration of 3 μM in the presence of 0.3% DMSO for 48 hours incubation at 37° C. For IC50 value determination, serial dilutions of compounds were added to cells under the same conditions. Following 48 hours of incubation cells were lysed with lysis buffer containing 1% Triton X-100, EDTA, and Halt™ Protease & Phosphatase Inhibitor Cocktail (Thermo Scientific). Protein concentration was assessed by BCA protein assay (Thermo Scientific). Increase expression of PUMA and active/cleaved forms of caspase 3, caspase 6 and caspase 9 were detected by western blot.
(§6) Western blot protocol: Equal amounts of protein (15-50 μg) were separated by SDS-PAGE and transferred to nitrocellulose membranes (Invitrogen by Thermo Fisher Scientific). The membrane was stained with Ponceau S Stain (Boston BioProducts) to verify uniform protein loading. Membranes were blocked with 10% milk and expression levels of PUMA was assessed by incubating overnight at 4° C. with the antibody PUMA (D30C10) from Cell Signaling Technology (#12450) and active/cleaved forms of caspase 3, caspase 6 and caspase 9 by incubating overnight at 4° C. with the following antibodies: cleaved caspase-3 (Asp175) (5A1E), cleaved caspase-6 (Asp162) and cleaved caspase-9 (Asp330) (D2D4) (all antibodies from Cell Signaling Technology). Then the membranes were incubated with HRP-conjugated secondary antibody (Jackson Immunoresearch, West Grove, PA). Bands were incubated in Amersham ECL Prime Western Blotting Detection Reagent (GE Healthcare) and visualized using the ChemiDoc MP imaging system (Bio-Rad).
Background: In western blotting, separated proteins are transferred to a membrane and probed.

In a further assay the test system is active/cleaved caspase 6. The experiment in a line: Cell-based caspase activation assay (western blot). On the set-up: species or system human. The method, then: as §2, §3, §4, §5, §6
Another assay deals with PUMA expression. The experiment in a line: Cell-based Puma expression assay (western blot). On the set-up: species or system human. The method, then: as §2, §3, §4, §5, §6
Setting [5] is: BT-549, Proliferation assay, BT549, read-out: BT549 IC50 (nM) TNBC.
Setting [6] is: Proliferation assay, NCI-H358, read-out: NCI-H358 IC50 (nM) NSCLC.
Where [7] appears, read: Proliferation assay, A375, read-out: A375 IC50 (nM) Melanoma.
[8] abbreviates: Proliferation assay, read-out: GP2d IC50 (nM) Colorectal.

Turning to `Cc1cc(Nc2nc(-c3nccn3C)nn3cc(-c4ccn(C)n4)c(C)c23)n[nH]1` [Compound 255, 5-Methyl-2-(1-methyl-1H-imidazol-2-yl)-6-(1-methyl-1H-pyrazol-3-yl)-N-(5-methyl-1H-pyrazol-3-yl)pyrrolo[2,1-f][1,2,4]triazin-4-amine], the IC50 in assay [1] (setting [5]) was 1 to 10 nM; in assay [2] (setting [6]), 1 to 10 nM; in the assay with A375 (wild type Kras) (setting [7]) it was 10 to 50 nM; in assay [3] it was under 1 nM; in assay [4] (setting [8]) it was 1 to 10 nM.
Consider `Cc1[nH]nc(Nc2nc(-c3nccn3C)nn3cc(-c4ccn(C)n4)c(C)c23)c1C` [Compound 267, N-(4,5-Dimethyl-1H-pyrazol-3-yl)-5-methyl-2-(1-methyl-1H-imidazol-2-yl)-6-(1-methyl-1H-pyrazol-3-yl)pyrrolo[2,1-f][1,2,4]triazin-4-amine], for which the IC50 is 10 to 50 nM in assay [1] (setting [5]); 1 to 10 nM in assay [2] (setting [6]); 1 to 10 nM in the assay on A375 (wild type Kras) (setting [7]); under 1 nM in assay [3]; 1 to 10 nM in assay [4] (setting [8]).
With `COc1cc(Nc2nc(-c3nccn3C)nn3cc(-c4ccn(C)n4)c(C)c23)n[nH]1` [Compound 252, N-(5-Methoxy-1H-pyrazol-3-yl)-5-methyl-2-(1-methyl-1H-imidazol-2-yl)-6-(1-methyl-1H-pyrazol-3-yl)pyrrolo[2,1-f][1,2,4]triazin-4-amine], the IC50 was 10 to 50 nM in assay [1] (setting [5]); 1 to 10 nM in assay [2] (setting [6]); over 50 nM in the assay on A375 (wild type Kras) (setting [7]); under 1 nM in assay [3]; 1 to 10 nM in assay [4] (setting [8]).
Consider `COc1ccnc(Nc2nc(-c3nccn3C)nn3cc(-c4ccn(C(C)C)n4)c(C)c23)c1` [Compound 58, 6-(1-Isopropyl-1H-pyrazol-3-yl)-N-(4-methoxypyridin-2-yl)-5-methyl-2-(1-methyl-1H-imidazol-2-yl)pyrrolo[2,1-f][1,2,4]triazin-4-amine], for which the IC50 in assay [1] (setting [5]) is 1 to 10 nM; in assay [1] (BT-549, Breast (TNBC), KRas WT, read-out: Proliferation assay IC50), under 150 nM; in assay [2] (NCI-H358, NSCLC, KRas G12C, read-out: Proliferation assay IC50) it was under 150 nM; in assay [2] (setting [6]), 10 to 50 nM; in the assay with A375 (wild type Kras) (A375, melanoma, KRas WT, read-out: Proliferation assay IC50) it was under 150 nM; with A375 (wild type Kras) (setting [7]) it was 1 to 10 nM. The IC50 in assay [3] is under 1 nM; in assay [4] (setting [8]) it was 10 to 50 nM; in assay [4] (colon, KRas G12D, read-out: Proliferation assay IC50), under 150 nM. Further, the “Caspase 9 activation” value in the assay with active/cleaved caspase 9 (A549, after 48 hours) is listed as “yes”; in the assay with active/cleaved caspase 9 (BT-549, after 48 hours) it was “yes”; in the assay on active/cleaved caspase 9 (MiaPaca2, after 48 hours), “yes”. Further, the “Caspase 6 activation” value in the assay with active/cleaved caspase 6 (A549, after 48 hours) is recorded as “yes”; in the assay with active/cleaved caspase 6 (BT-549, after 48 hours), “yes”; in the assay with active/cleaved caspase 6 (MiaPaca2, after 48 hours), “yes”. Besides, the “Increased PUMA expression” value in the assay with PUMA expression (A549, after 48 hours) is listed as “yes”; in the assay on PUMA expression (BT-549, after 48 hours), “yes”; in the assay on PUMA expression (MiaPaca2, after 48 hours) it was “yes”.
